These results are taken from patent US10711002B2, “Purine compounds and method for the treatment of cancer” (THE ROYAL INSTITUTION FOR THE ADVANCEMENT OF …, priority 2016, dated 2020).

Data set [1] deals with BT-20 cells. Description: Tumorsphere formation. It counts as cell-based. The settings on record: BT-20, 1 μM for 72H, reseeded in suspension. How it is done: (§1) Cancer cell lines: MDA-MB-231, BT-20, Panc-1, OVCAR-3, 4T1 and RENCA were obtained from ATCC. Epithelial breast adenocarcinoma cell line PMC42-LA, were kindly provided by Dr. Ackland. Mia-Paca cells were kindly provided by Dr. George Zogopoulos. All cancer cell lines were cultured in RPMI1640× with 10% fetal bovine serum with 1% penicillin/streptomycin, and maintained at 37° C. in 5% atmosphere of CO2. In the case of growth factor stimulation, cells were serum starved for no longer than 12H, and then stimulated with 20 ng/ml EGF for 40 minutes.
(§2) After treatment with 1 μM Compound 1 for 72H, MDA-MB-231 and BT-20 cells were digested with 0.25% trypsin and reseeded at 2.5×10^4 cells/ml in 60 mm Ultralow Adherence plates (Corning) in DMEM/F12 supplemented with 5 ug/ml human insulin, 20 ng/ml human epidermal growth factor, 0.5 ug/ml hydrocortisone and 2% B27 (Invitrogen). Tumorspheres were then visualized (FIG. 1A) and then quantified (FIG. 1B). An important feature of cancer stem-like cells is their enhanced tumorsphere forming potential when grown in suspension. The tumorsphere forming capacity of Compound 1-treated MDA-MB-231 and BT-20 were analyzed in FIG. 1A. Consistent with previous characterization of these cells, in the absence of Compound 1, both MDA-MB-231 and BT-20 are capable of propagating as small individual tumorspheres that survive passaging.

For data set [2], the system named is MDA-MB-231 cells. As to the kind of experiment: Tumorsphere formation. The data set is classed as cell-based. The note with it: MDA-MB-231, 1 μM for 72H, reseeded in suspension. How it is done:
as §1, §2

Data set [3] has as its system cell mobility. As to the kind of experiment: Live cell locomotion assay. The data set is classed as cell-based. The note with it: moderate doses; 10 ng/mL EGF stimulation. How it is done: Cells were seeded at very low density on multi-well chambered coverglass (LabTek, Rochester, N.Y., USA). After starving, cells were stimulated with 10 ng/mL EGF and plated on a heated humidified stage supplied with 5% CO2. Phase contrast time-lapse images were captured every five minutes for three hours by optimized Nipkow spinning disk confocal microscope (WaveFx spinning disk, Quorum Technologies Inc, Guelph, ON, Canada). Cell motility was measured by tracing the cell periphery manually using Volocity software (Perkin Elmer, Waltham, Mass., USA).
To further confirm Compound 1's anti-metastatic potential, we conducted a live cell locomotion assay to quantify cell movement speed.

Data set [4] deals with PMC42-LA cells. As to the kind of experiment: Organoid differentiation on matrigel. The data set is classed as cell-based. As for the experimental part: as §1
In order to confirm that the reduction of CSC markers by Compound 1 correlates with loss of stem-cell properties, the effect of Compound 1 was investigated on the differentiation capability of a well-established PMC42-LA breast cell line. PMC42-LA cells treated with the appropriate concentrations of Compound 1 were also plated on Compound 1 containing matrigel and allowed to form organoids. Since the defining characteristic of stem cells is pluripotency—the capacity of a cell to differentiate into varying progenies, then Compound 1 may inhibit the differentiation process in those PMC42-LA cells. In the absence of drug treatment, PMC42-LA cells undergo differentiation into secretory organoids when cultured on matrigel.

Data set [5] can be described thus: Pilot toxicity study. The data set is classed as in vivo, mice. The settings on record: doses even superior to 30 mg/kg, PO, 3 times a week, 4 cycles. An excerpt:
In vivo studies were approved by McGill Animal Care Committee. Cells growing in exponential phase of growth (1×10^6 cells/mouse) were transplanted into the mammary fat pad of female SCID (MDA231/M) or Balb/c (4T1) mice. Mia-PaCa cells and RENCA cells were implanted subcutaneously in SCID or Balb/c mice respectively. When primary tumors became palpable mice were randomized and blindly assigned treatment groups. Treatment was given PO for 4 cycles (3 times a week: day 1, day 3, day 5) (n=8-10 mice per condition). Control mice received the vehicle alone (1% DMSO in physiologic solution). […] Tumor size was measured using a caliper. At the study termination (60-90 days) primary tumors were excised and weighted. The lungs were fixed in 10% Bouin's fixative and lung surface metastases were counted using a stereomicroscope.

SMILES strings stand for the structures.

As for `O=c1c2ccccc2[se]n1-c1nc(NC2CCCCC2)c2nc[nH]c2n1` [Compound 1], the viable tumorspheres result in data set [1] was “dramatic reduction in viable tumorspheres”. The viable tumorspheres result in data set [2] is “dramatic reduction in viable tumorspheres”. In addition, the “limitation of the rate of cell mobility” value in data set [3] is recorded as 2-3 fold. In data set [4], the “differentiation and expansion of colonies into larger organoid structures” value is “visibly prevented the differentiation and expansion of these colonies into larger organoid structures”; the “number of overall colonies” value was “did not reduce the number of overall colonies”.

Turning to `O=c1c2ccccc2[se]n1-c1nc(N[C@H]2CC[Se]C2)c2nc[nH]c2n1` [Compound 4], in data set [5], the body weight loss result was “no body weight loss” and the toxicity result was “no apparent toxicity”.
